The record followed here is patent US20240368150A1 (Hoffmann-La Roche Inc., priority 2021, published 2024).

pEC50: −log10 of the molar value. Like-named read-outs stand apart in the source and are kept apart here.

Assay [1] relates to primary human T-cells.
The test system of assay [2] is primary human T-cells. Kind of assay: Proliferation assay after 5 days (CellTiter-Glo, CD3 stimulation; PBS counter screen). Format: cell-based. To be noted: Homo sapiens, T-cell, 120 h, CD3 stimulation; for Emax: 5 days, normalized to reference compound A1 as stimulator control = 100%, DMSO neutral control, read-out: Emax proliferation (% activation); for pEC50: primary human T-cells, CellTiter-Glo after 5 days, EC50 of fitted sigmoidal curve, read-out: Tcell Proliferation CD3 EC50. An outline of the steps:
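Cpds added to medium-only plates; 5 d culture. Readout CellTiter-Glo 2.0 (equal vol), RT 45 min equilibration, 15 min rocking RT, luminescence. ATP signal taken as cell number.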
(In general: In ATP-based viability assays light output follows the ATP content of the culture.)

Turning to `Cc1ccc(-c2nnc(-c3cc4c(cc3F)S(=O)(=O)C[C@H](N)C(=O)N4Cc3ccc(Cl)cc3)o2)cn1` [Example 133, (3R)-3-amino-5-[(4-chlorophenyl)methyl]-8-fluoro-7-[5-(6-methyl-3-pyridyl)-1,3,4-oxadiazol-2-yl]-1,1-dioxo-2,3-dihydro-1λ^6,5-benzothiazepin-4-one], the pEC50 with primary human T-cells [1] is 5.93. Further, in the assay with primary human T-cells [2], the Emax turned out to be 144% and the pEC50 was 6.49.
In the same order, the values of `N[C@H]1CS(=O)(=O)c2cc(F)c(-c3nnc(-c4ccc(F)nc4)o3)cc2N(Cc2ccc(Cl)cc2)C1=O` [Example 134, (3R)-3-amino-5-[(4-chlorophenyl)methyl]-8-fluoro-7-[5-(6-fluoro-3-pyridyl)-1,3,4-oxadiazol-2-yl]-1,1-dioxo-2,3-dihydro-1λ^6,5-benzothiazepin-4-one] are 5.87, 34% and less than 5.00.
Take `N[C@H]1CS(=O)(=O)c2cc(F)c(-c3nnc(-c4ccc(F)cn4)o3)cc2N(Cc2ccc(Cl)cc2)C1=O` [Example 135, (3R)-3-amino-5-[(4-chlorophenyl)methyl]-8-fluoro-7-[5-(5-fluoro-2-pyridyl)-1,3,4-oxadiazol-2-yl]-1,1-dioxo-2,3-dihydro-1λ^6,5-benzothiazepin-4-one]: the pEC50 was 5.54 in the assay on primary human T-cells [1] and 5.98 with primary human T-cells [2]. Moreover, the Emax in the assay on primary human T-cells [2] was determined as 93%.
In the same order, the values of `CC(C)(c1nnc(-c2cc3c(cc2F)S(=O)(=O)C[C@H](N)C(=O)N3Cc2ccc(Cl)cc2)o1)C(N)C(F)(F)F` (stereo partly drawn) [Example 136, (3R)-3-amino-7-[5-(2-amino-3,3,3-trifluoro-1,1-dimethyl-propyl)-1,3,4-oxadiazol-2-yl]-5-[(4-chlorophenyl)methyl]-8-fluoro-1,1-dioxo-2,3-dihydro-1λ^6,5-benzothiazepin-4-one] are 6.73, 6.94 and 99%.
For `COC(=O)NC(C(F)(F)F)C(C)(C)c1nnc(-c2cc3c(cc2F)S(=O)(=O)C[C@H](N)C(=O)N3Cc2ccc(Cl)cc2)o1` (stereo partly drawn) [Example 137, methyl N-[2-methyl-2-[5-[(3R)-3-amino-5-[(4-chlorophenyl)methyl]-8-fluoro-1,1,4-trioxo-2,3-dihydro-1λ^6,5-benzothiazepin-7-yl]-1,3,4-oxadiazol-2-yl]-1-(trifluoromethyl)propyl]carbamate] the same measures were 6.31, 6.51 and 90%.
As to `CC(C)(CN1CCS(=O)(=O)CC1)c1nnc(-c2cc3c(cc2F)S(=O)(=O)C[C@H](N)C(=O)N3Cc2ccc(Cl)cc2)o1` [Example 138, (3R)-3-amino-5-[(4-chlorophenyl)methyl]-7-[5-[2-(1,1-dioxo-1,4-thiazinan-4-yl)-1,1-dimethyl-ethyl]-1,3,4-oxadiazol-2-yl]-8-fluoro-1,1-dioxo-2,3-dihydro-1λ^6,5-benzothiazepin-4-one], the pEC50 with primary human T-cells [1] is 5.46; with primary human T-cells [2], 5.82. The Emax in the assay on primary human T-cells [2] stood at 120%.
Regarding `CN(CCO)CC(C)(C)c1nnc(-c2cc3c(cc2F)S(=O)(=O)C[C@H](N)C(=O)N3Cc2ccc(Cl)cc2)o1` [Example 139, (3R)-3-amino-5-[(4-chlorophenyl)methyl]-8-fluoro-7-[5-[2-[2-hydroxyethyl(methyl)amino]-1,1-dimethyl-ethyl]-1,3,4-oxadiazol-2-yl]-1,1-dioxo-2,3-dihydro-1λ^6,5-benzothiazepin-4-one], the pEC50 with primary human T-cells [1] is 5.40. In the assay with primary human T-cells [2], the Emax is 102% and the pEC50 is 5.47.
Take `CN(C)CCC(C)(C)c1nnc(-c2cc3c(cc2F)S(=O)(=O)C[C@H](N)C(=O)N3Cc2ccc(Cl)cc2)o1` [Example 140, (3R)-3-amino-5-[(4-chlorophenyl)methyl]-7-[5-[3-(dimethylamino)-1,1-dimethyl-propyl]-1,3,4-oxadiazol-2-yl]-8-fluoro-1,1-dioxo-2,3-dihydro-1λ^6,5-benzothiazepin-4-one]: the pEC50 was 5.41 in the assay on primary human T-cells [1] and 5.27 in the assay with primary human T-cells [2]. For the same compound, the Emax in the assay with primary human T-cells [2] worked out at 70%.
For `CC(C)(CN1CCCCC1)c1nnc(-c2cc3c(cc2F)S(=O)(=O)C[C@H](N)C(=O)N3Cc2ccc(Cl)cc2)o1` [Example 141, (3R)-3-amino-5-[(4-chlorophenyl)methyl]-7-[5-[1,1-dimethyl-2-(1-piperidyl)ethyl]-1,3,4-oxadiazol-2-yl]-8-fluoro-1,1-dioxo-2,3-dihydro-1λ^6,5-benzothiazepin-4-one] the same measures were 6.59, 6.11 and 91%.
For `CC(C)(CN1CCC(F)(F)CC1)c1nnc(-c2cc3c(cc2F)S(=O)(=O)C[C@H](N)C(=O)N3Cc2ccc(Cl)cc2)o1` [Example 142, (3R)-3-amino-5-[(4-chlorophenyl)methyl]-7-[5-[2-(4,4-difluoro-1-piperidyl)-1,1-dimethyl-ethyl]-1,3,4-oxadiazol-2-yl]-8-fluoro-1,1-dioxo-2,3-dihydro-1λ^6,5-benzothiazepin-4-one] the same measures were 6.65, 6.86 and 66%.
In the same order, the values of `CN(C)CCCC(C)(C)c1nnc(-c2cc3c(cc2F)S(=O)(=O)C[C@H](N)C(=O)N3Cc2ccc(Cl)cc2)o1` [Example 143, (3R)-3-amino-5-[(4-chlorophenyl)methyl]-7-[5-[4-(dimethylamino)-1,1-dimethyl-butyl]-1,3,4-oxadiazol-2-yl]-8-fluoro-1,1-dioxo-2,3-dihydro-1λ^6,5-benzothiazepin-4-one] are 5.90, 5.62 and 77%.
`CN1CCC(c2nnc(-c3cc4c(cc3F)S(=O)(=O)C[C@H](N)C(=O)N4Cc3ccc(Cl)cc3)o2)C1` (stereo partly drawn) [Example 144, (3R)-3-amino-5-[(4-chlorophenyl)methyl]-8-fluoro-7-[5-(1-methylpyrrolidin-3-yl)-1,3,4-oxadiazol-2-yl]-1,1-dioxo-2,3-dihydro-1λ^6,5-benzothiazepin-4-one] showed a pEC50 in the assay on primary human T-cells [1] of 5.74. In the assay on primary human T-cells [2], the Emax worked out at 106% and the pEC50 is 5.21.
With `CN1CCCC(C)(c2nnc(-c3cc4c(cc3F)S(=O)(=O)C[C@H](N)C(=O)N4Cc3ccc(Cl)cc3)o2)C1` (stereo partly drawn) [Example 145, (3R)-3-amino-5-[(4-chlorophenyl)methyl]-7-[5-(1,3-dimethyl-3-piperidyl)-1,3,4-oxadiazol-2-yl]-8-fluoro-1,1-dioxo-2,3-dihydro-1λ^6,5-benzothiazepin-4-one], the values for the pEC50 with primary human T-cells [1] and with primary human T-cells [2] were 6.39 and 6.37, respectively. Moreover, the Emax in the assay with primary human T-cells [2] came to 107%.
In the case of `CN(C)CC(C)(C)c1nnc(-c2cc3c(cc2F)S(=O)(=O)C[C@H](N)C(=O)N3Cc2ccc(Cl)cc2)o1` [Example 146, (3R)-3-amino-5-[(4-chlorophenyl)methyl]-7-[5-[2-(dimethylamino)-1,1-dimethyl-ethyl]-1,3,4-oxadiazol-2-yl]-8-fluoro-1,1-dioxo-2,3-dihydro-1λ^6,5-benzothiazepin-4-one], the pEC50 in the assay with primary human T-cells [1] was 6.59. Moreover, in the assay with primary human T-cells [2], the Emax was 90% and the pEC50 is 6.72.
For `CC(C)(CN1CCOCC1)c1nnc(-c2cc3c(cc2F)S(=O)(=O)C[C@H](N)C(=O)N3Cc2ccc(Cl)cc2)o1` [Example 147, (3R)-3-amino-5-[(4-chlorophenyl)methyl]-7-[5-(1,1-dimethyl-2-morpholino-ethyl)-1,3,4-oxadiazol-2-yl]-8-fluoro-1,1-dioxo-2,3-dihydro-1λ^6,5-benzothiazepin-4-one] the same measures were 6.46, 117% and 6.46.
In the same order, the values of `CN1CCN(CC(C)(C)c2nnc(-c3cc4c(cc3F)S(=O)(=O)C[C@H](N)C(=O)N4Cc3ccc(Cl)cc3)o2)CC1` [Example 148, (3R)-3-amino-5-[(4-chlorophenyl)methyl]-7-[5-[1,1-dimethyl-2-(4-methylpiperazin-1-yl)ethyl]-1,3,4-oxadiazol-2-yl]-8-fluoro-1,1-dioxo-2,3-dihydro-1λ^6,5-benzothiazepin-4-one] are 6.01, 48% and less than 5.00.
For `CC(C)(CCCN)c1nnc(-c2cc3c(cc2F)S(=O)(=O)C[C@H](N)C(=O)N3Cc2ccc(Cl)cc2)o1` [Example 149, (3R)-3-amino-7-[5-(4-amino-1,1-dimethyl-butyl)-1,3,4-oxadiazol-2-yl]-5-[(4-chlorophenyl)methyl]-8-fluoro-1,1-dioxo-2,3-dihydro-1λ^6,5-benzothiazepin-4-one] the same measures were 5.37, 57% and 5.59.
`CCN1CC(c2nnc(-c3cc4c(cc3F)S(=O)(=O)C[C@H](N)C(=O)N4Cc3ccc(Cl)cc3)o2)CC(F)(F)C1` (stereo partly drawn) [Example 150, (3R)-3-amino-5-[(4-chlorophenyl)methyl]-7-[5-(1-ethyl-5,5-difluoro-3-piperidyl)-1,3,4-oxadiazol-2-yl]-8-fluoro-1,1-dioxo-2,3-dihydro-1λ^6,5-benzothiazepin-4-one] showed a pEC50 in the assay on primary human T-cells [1] of 6.45. Moreover, in the assay with primary human T-cells [2], the Emax came to 128% and the pEC50 was 7.12.
Take `COCCN1CC(c2nnc(-c3cc4c(cc3F)S(=O)(=O)C[C@H](N)C(=O)N4Cc3ccc(Cl)cc3)o2)CC(F)(F)C1` (stereo partly drawn) [Example 151, (3R)-3-amino-5-[(4-chlorophenyl)methyl]-7-[5-[5,5-difluoro-1-(2-methoxyethyl)-3-piperidyl]-1,3,4-oxadiazol-2-yl]-8-fluoro-1,1-dioxo-2,3-dihydro-1λ^6,5-benzothiazepin-4-one]: the pEC50 with primary human T-cells [1] was 7.03. Moreover, in the assay on primary human T-cells [2], the Emax was 112% and the pEC50 was 7.34.
